We go through 14 compounds from paper PMC8299157 (Antiviral Research, 2021).

Structures can show the parent of a compound that is named as a salt. Where two headings read alike, the source gives them in different places.

For one data set, the target named is human N7-MTase RNMT-RAM (Homo sapiens, UniProt O43148). As to the kind of experiment: Py-FLINT N7-MTase inhibition assay. The class given is biochemical. The settings on record: for IC50 Py-FLINT (RNMT-RAM): 2 μM Py-FLINT probe, 20 μM SAM, 20 nM RNMT-RAM.
The nature of another data set: in vitro. To be noted: human.
For a further data set, the system named is SARS-CoV-2. The class given is cell-based. To be noted: for EC50: read-out: EC50 Antiviral assay.
The target of a further data set is nsp14 (Severe acute respiratory syndrome coronavirus 2, UniProt P0DTD1). The data set is classed as binding, SARS-CoV-2. To be noted: 100 μM inhibitor; for Inhibitor type (targeted binding site): from both FA competition assays.
For another data set, the target named is nsp14 N7-MTase (Severe acute respiratory syndrome coronavirus 2, UniProt P0DTD1). Description: RP HPLC inhibition study of Gp3A N7-methylation. The class given is biochemical, SARS-CoV-2.
The target in data set [1] is SARS-CoV-2 nsp14 N7-MTase (Severe acute respiratory syndrome coronavirus 2, UniProt P0DTD1). Description: Py-FLINT N7-MTase inhibition assay. The data set is classed as biochemical.

Sequence of human N7-MTase RNMT-RAM (O43148 whole entry): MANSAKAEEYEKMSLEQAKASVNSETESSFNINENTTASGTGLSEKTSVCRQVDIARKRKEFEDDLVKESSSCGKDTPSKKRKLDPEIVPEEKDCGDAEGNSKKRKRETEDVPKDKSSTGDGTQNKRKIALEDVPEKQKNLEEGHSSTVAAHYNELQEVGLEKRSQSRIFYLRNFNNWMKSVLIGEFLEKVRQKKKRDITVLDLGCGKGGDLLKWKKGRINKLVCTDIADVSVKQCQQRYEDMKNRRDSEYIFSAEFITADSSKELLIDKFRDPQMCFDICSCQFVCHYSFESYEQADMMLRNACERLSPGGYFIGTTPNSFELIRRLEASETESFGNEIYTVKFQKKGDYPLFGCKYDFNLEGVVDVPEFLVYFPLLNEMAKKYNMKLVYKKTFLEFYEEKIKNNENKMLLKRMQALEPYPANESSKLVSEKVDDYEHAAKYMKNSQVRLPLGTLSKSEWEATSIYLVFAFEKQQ
Sequence of human N7-MTase RNMT-RAM (Q9BTL3 whole entry partner): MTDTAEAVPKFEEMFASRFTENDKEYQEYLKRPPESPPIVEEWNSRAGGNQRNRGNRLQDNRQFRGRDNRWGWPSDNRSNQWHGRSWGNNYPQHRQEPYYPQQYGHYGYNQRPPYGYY

In general, IC50 refers to the concentration that inhibits the measured activity by half. On human N7-MTase RNMT-RAM, `O=c1c2ccccc2[se]n1-c1ccccc1` [FI6, Ebselen] had an IC50 of 23.8 ± 1.3 µM.

In general, EC50 refers to the concentration at which the effect is half-maximal. `Cc1cc(-c2ccc(/N=N/c3ccc4c(S(=O)(=O)O)cc(S(=O)(=O)O)c(N)c4c3O)c(C)c2)ccc1/N=N/c1ccc2c(S(=O)(=O)O)cc(S(=O)(=O)O)c(N)c2c1O` [FI7, Evans Blue] returned a CC50 in the data set “in vitro” of 35.6 ± 1 µM. Further, the “CC50/EC50 Selectivity index” value in the data set on SARS-CoV-2 (Huh 7 cells) was 1.15 ± 0.04. Moreover, in the data set with SARS-CoV-2, the EC50 was 31 ± 0.9 µM. The IC50 on human N7-MTase RNMT-RAM was 0.33 ± 0.05 µM.

Consider `CC(=O)OC[C@H]1O[C@@H]([S-])[C@H](OC(C)=O)[C@@H](OC(C)=O)[C@@H]1OC(C)=O.CCP(CC)CC.[Au+]` [FI9, Auranofin], for which, in the data set on SARS-CoV-2, the EC50 is above 100 µM. The “IC50 Py-FLINT (RNMT-RAM)” value against human N7-MTase RNMT-RAM is “no human N7-MTase inhibition”. For the same compound, the “Inhibitor type (targeted binding site)” value on nsp14 is “bound by nsp14 within the nucleotide binding pocket”.

With `Oc1c(Cl)cc(Cl)c(Cl)c1Cc1c(O)c(Cl)cc(Cl)c1Cl` [FI11, Hexachlorophene], in the data set with SARS-CoV-2, the “CC50/EC50 Selectivity index” value is reported as “not active”. On human N7-MTase RNMT-RAM, this compound yielded an IC50 of 8 ± 3.2 µM. Further, the “Inhibitor type (targeted binding site)” value on nsp14 is “bound by nsp14 within the nucleotide binding pocket”.

In “in vitro”, `NCCOc1cc(C(=O)Nc2cc(OCCN)c3ccccc3n2)nc(C(=O)Nc2cc(OCCN)c3ccccc3n2)c1` [LI3, Pyridostatin xCF3COO^-] showed a CC50 of 59.3 ± 21.6 µM. In addition, at nsp14 N7-MTase, the “inhibition of m7Gp3A formation (RP HPLC)” value was “lower potency”. Also, the “CC50/EC50 Selectivity index” value in the data set on SARS-CoV-2 (Huh 7 cells) was 16.6 ± 6.1. In addition, the EC50 was 3.58 ± 0.16 µM with SARS-CoV-2 and below 50 µM with SARS-CoV-2 (listed as Pyridostatin). The same compound yielded an IC50 at human N7-MTase RNMT-RAM of 3.1 µM. Also, in data set [1] (compounds selected from LOPAC1280 library (Table S3)), the “p (Hill slope)” value is 18.1. In addition, on nsp14, the “FA values in both binding assays and control sample” value is on record as “high FA values in both assays as well as in the control sample”.

In turn, `Nc1c(S(=O)(=O)O)cc(Nc2ccc(Nc3nc(Cl)nc(Nc4cccc(S(=O)(=O)O)c4)n3)c(S(=O)(=O)O)c2)c2c1C(=O)c1ccccc1C2=O` [LI4, Reactive Blue 2] gave a CC50 in “in vitro” of 52.6 ± 10.2 µM. Further, the EC50 is 16.3 ± 0.3 µM in the data set with SARS-CoV-2 and below 50 µM in the data set on SARS-CoV-2 (listed as Reactive Blue 2). At human N7-MTase RNMT-RAM, this compound yielded an IC50 of 1.5 ± 0.28 µM.

For `O=C1c2c(O)ccc(O)c2C(=O)c2c(NCCNCCO)ccc(NCCNCCO)c21` [LI5, Mitoxantrone 2HCl], the CC50 in “in vitro” was below 0.04 µM. Also, on nsp14 N7-MTase, the “inhibition of m7Gp3A formation (RP HPLC)” value is listed as “lower potency”. Besides, the “CC50/EC50 Selectivity index” value in the data set on SARS-CoV-2 (Huh 7 cells) is given as “not active”. For the same compound, on human N7-MTase RNMT-RAM, half-maximal inhibition (IC50) required 3.92 ± 0.21 µM. The “FA values in both binding assays and control sample” value on nsp14 was “high FA values in both assays as well as in the control sample”.

Regarding `N.N.N.N.N.N.N.N.N.N.N.N.N.N.[Cl-].[Cl-].[Cl-].[Cl-].[Cl-].[Cl-].[O-2].[O-2].[Ru+3].[Ru+3].[Ru+4]` [LI6, Ruthenium red], the “inhibition of m7Gp3A formation (RP HPLC)” value against nsp14 N7-MTase is “lower potency”.

With `CC(C)N(CCC(=O)c1ccc2ccccc2c1)Cc1ccccc1` [LI7, ZM 39923 HCl], the CC50 in “in vitro” is 12.2 ± 0.6 µM. In addition, the “CC50/EC50 Selectivity index” value with SARS-CoV-2 (Huh 7 cells) is given as “not active”. Moreover, at human N7-MTase RNMT-RAM, the IC50 is 15.9 ± 3.3 µM. The “Inhibitor type (targeted binding site)” value on nsp14 is given as “bound by nsp14 within the nucleotide binding pocket”.

In the data set “in vitro”, `O=c1c(O)c(-c2cc(O)c(O)c(O)c2)oc2cc(O)cc(O)c12` [LI8, Myricetin] returned a CC50 of 41.6 ± 7.1 µM. For the same compound, the IC50 against human N7-MTase RNMT-RAM stood at 3.57 ± 0.36 µM.

`COC(=O)c1c(NC(=O)c2cc3ccccc3o2)sc(C)c1C` [OI1, Methyl 2-[(1-benzofuran-2-ylcarbonyl)amino]-4,5-dimethylthiophene-3-carboxylate] yielded a CC50 in the data set “in vitro” above 100 µM. Besides, in the data set on SARS-CoV-2 (Huh 7 cells), the “CC50/EC50 Selectivity index” value is “not active”. Also, at human N7-MTase RNMT-RAM, the IC50 was above 100 µM and the “IC50 Py-FLINT (RNMT-RAM)” value was “no human N7-MTase inhibition”. Further, the “Inhibitor type (targeted binding site)” value on nsp14 is recorded as “bound by nsp14 within the nucleotide binding pocket”.

Take `Clc1cccc(/C=C/c2nn3c(-c4ccco4)nnc3s2)c1` [OI2, (E)-6-(3-Chlorostyryl)-3-(furan-2-yl)-[1,2,4]triazolo[3,4-b][1,3,4]thiadiazole]: the CC50 in the data set “in vitro” was 71.3 ± 5.9 µM. Besides, the “CC50/EC50 Selectivity index” value with SARS-CoV-2 (Huh 7 cells) was “not active”. Moreover, on human N7-MTase RNMT-RAM, the IC50 was above 100 µM and the “IC50 Py-FLINT (RNMT-RAM)” value is given as “no human N7-MTase inhibition”. In addition, the “Inhibitor type (targeted binding site)” value on nsp14 is “bound by nsp14 within the nucleotide binding pocket”.

`Nc1ncnc2c1ncn2[C@@H]1O[C@H](C[C@@H](N)CC[C@H](N)C(=O)O)[C@@H](O)[C@H]1O` [Sinefungin] showed a CC50 in “in vitro” above 100 µM. For the same compound, the IC50 on human N7-MTase RNMT-RAM stood at 0.22 ± 0.02 µM.

Turning to `O=c1cc(-c2ccccc2)oc2cc(O)c(O)c(O)c12` [baicalein], in data set [1] (50 μM library compound), the “inhibition of reaction progress in library screening” value is reported as “did not observe such activity”.
